Like-named read-outs stand apart in the source and are kept apart here.
What was measured:
Fab 4E10 = assay: Surface plasmon resonance (Biacore 2000), Fab 4E10 on CM5 chip; assay type: binding, human
Description: The affinitiefs of the peptide analogs for 4E10 were also measured by surface plasmon resonance. Surface plasmon resonance experiments were performed using a Biacore 2000 instrument (Uppsala, Sweden). Around 2,200 response units (RU) of Fab 4E10 were coated on CM5 chips. The carboxyl groups on the chip were activated with 1-ethyl-3-(3-dimethylaminopropyl)carbodiimide hydrochloride (EDC) and N-hydroxysuccinimide (NHS). Fifty micrograms of Fab were diluted in 10 mM sodium acetate pH 4.5; a flow rate of 5 μl/min was used. Unreacted carboxyl groups were blocked with 1M ethanolamine at pH 8.5. The control was treated in the same fashion without any antibody present. Different amounts of free peptides were then passed over the surfaces at 30 or 50 μl/min for 2 min. Regeneration was done in HPS-EP buffer, 0.25 NaCl (Biacore) in 10 minutes. The amount of salt was increased compared to the commercial buffer to reduce the non-specific binding. For data evaluation, the BIAevaluation software was used. RI and Rmax were controlled, double referencing were done (0 concentration and start point). Analyses were performed to achieve the best curve fitting and small chi^2 (<1).
Surface plasmon resonance experiments were performed using a Biacore 2000 instrument (Uppsala, Sweden).
Chip preparation: around 2,200 response units (RU) of Fab 4E10 were coated on CM5 chips. The carboxyl groups on the chip were activated with 1-ethyl-3-(3-dimethylaminopropyl) carbodiimide hydrochloride (EDC) and N-hydroxysuccinimide (NHS). Fifty micrograms of Fab was diluted in 10 mM sodium acetate pH 4.5; a flow rate of 5 μl/min was used. Unreacted carboxyl groups were blocked with 1M ethanolamine at pH 8.5. The control was treated in the same fashion without any antibody present.
Experiment: different amounts of free peptides were then passed over the surfaces at 30 or 50 μl/min for 2 min. Regeneration was done in HPS-EP buffer, 0.25 NaCl (Biacore) in 10 min. The amount of salt was increased compared to the commercial buffer to reduce the non-specific binding.
Data evaluation: the BIAevaluation software was used. RI and Rmax were controlled, double referencing were done (0 concentration and start point). Analyses were performed to achieve the best curve fitting and small chi^2 (<1).

HIV-1 JR-CSF = assay type: cell-based; conditions: JRCSF; peptide at 30 μg/ml; FIG. 49
Description: (§1) FIG. 49 is a bar graph showing the ability of peptide […]-NH2 (SEQ ID NO: 8) to block neutralization of HIV-1 by 4E10. Replication competent HIV-1 (SF 162 and JR-CSF), produced in human PBMCs, were assayed for neutralization by 4E10 (100 μg/ml) in TZM-b1 cells, in the presence (white bars) or absence (black bars) of an excess of peptide.
(§2) To further investigate the interaction of peptide analogs and 4E10, the inhibitory effect of the best analogs on neutralization by 4E10 was assessed. Neutralization assays were performed in two different formats. In the first, replication competent HIV-1SF162 was assayed for neutralization using TZM-b1 cells as indicator cells (Wei, X., 2002). Alternatively, a pseudotype assay was used in which recombinant HIV-1JR-CSF virions, competent for a single round of infection, were generated using the luciferase reporter plasmid pNL4-3.Luc.R-E-, as described previously (Connor, R. I., 1995; Zwick, M. B., 2003), and the pseudovirus assayed for neutralization using U87.CD4.CCR5 cells as target cells (Bjorndal, A., 1997). In all cases, the competitor peptide ([…]-NH2; SEQ ID NO: 8) and IgG 4E10 were pre-incubated for 30 minutes at 37° C. […] The degree of virus neutralization was determined as a percentage reduction of viral infectivity against an Ab-free control. […]

HIV-1SF162 = assay type: cell-based; conditions: peptide at 30 μg/ml, FIG. 49
Description: as §1, §2

HIV-1JR-FL = assay: Peptide effect on neutralization by antibodies and sera, pseudotyped virus, U87.CD4.CCR5 cells; assay type: cell-based; conditions: FIG. 50
Description: FIG. 50 represents graphs showing the effect of peptide […]-NH2 (SEQ ID NO: 8) on neutralization of HIV-1 by polyclonal antibodies and sera. HIV-1JR-FL, pseudotyped using the pNL4-3.Luc reporter plasmid, was assayed for neutralization using pooled polyclonal IgG from HIV-1 seropositive individuals (HIVIG), broadly neutralizing serum from the FDA2 individual and normal human serum spiked with 4E10 at 200 μg/ml in the undiluted serum. Neutralization assays were performed using U87.CD4.CCR5 cells as target cells, in the presence (open symbols) or absence (closed symbols) of peptide […]-NH2 (SEQ ID NO: 8). Note that the zero point in serum dilution corresponds to only 30 μg/ml 94-1 being present.
To further investigate the interaction of peptide analogs and 4E10, the inhibitory effect of the best analogs on neutralization by 4E10 was assessed. Neutralization assays were performed in two different formats. In the first, replication competent HIV-1SF162 was assayed for neutralization using TZM-b1 cells as indicator cells (Wei, X., 2002). Alternatively, a pseudotype assay was used in which recombinant HIV-1JR-CSF virions, competent for a single round of infection, were generated using the luciferase reporter plasmid pNL4-3.Luc.R-E-, as described previously (Connor, R. I., 1995; Zwick, M. B., 2003), and the pseudovirus assayed for neutralization using U87.CD4.CCR5 cells as target cells (Bjorndal, A., 1997). In all cases, the competitor peptide ([…]-NH2; SEQ ID NO: 8) and IgG 4E10 were pre-incubated for 30 minutes at 37° C. (60 μg/ml), then the mixture was added (1:1 by volume) to HIV-1, and the resulting mixture incubated for a further hour at 37° C. The mixture of peptide, 4E10, and HIV-1 was then added (1:1 by volume) to the target cells, and the assay developed using luciferase reagent (Promega) following 48-72 hour incubation at 37° C. The degree of virus neutralization was determined as a percentage reduction of viral infectivity against an Ab-free control. All experiments were performed in triplicate and repeated at least twice with similar results.

[1] = Circular dichroism spectroscopy of free peptides in solution (helicity); assay type: physicochemical; conditions: FIG. 48
Description: To determine whether the imposed constraints increased the helicity of the peptides, each one was analyzed in solution using circular dichroism (CD) spectroscopy (FIG. 48). An Aviv spectropolarimeter Model 203-02 was used, with cells of 0.1 cm in length, a wavelength step of 0.5 nm and a bandwidth of 1.0 nm. One to three scans were reported. The exact peptide concentrations were determined by UV measurements at 280 nm on a Gison UV detector, model 116.

Sequence: NWFDITNWLWYIKKKK [Peptide 94-1, NWFDITNWLWYIKKKK-NH2]
- higher affinity of 4E10 than to peptide 33-1 (Fab 4E10; Table 7): about 17 fold
- koff (Fab 4E10; Table 7): 0.0138 s⁻¹
- kon (Fab 4E10; Table 7): 691000 M⁻¹ s⁻¹
- Kd (Fab 4E10; Table 7, 4E10 peptide epitopes, read-out: Kd): 20 nM
- Kd (Fab 4E10; read-out: Kd (Biacore)): 18 nM
- block of neutralization by 4E10 (HIV-1 JR-CSF): could block the neutralization
- block of neutralization by 4E10 (HIV-1SF162): could block the neutralization
- block of neutralization by normal sera spiked with 4E10 (HIV-1JR-FL): blocks neutralization
- block of neutralization by the reference sera FDA2 (HIV-1JR-FL): does not block neutralization
- block of neutralization by polyclonal IgG from HIV-1 infected donors (HIV-1JR-FL; HIVIG): does not block neutralization
- helicity in solution by CD [1]: more helical than 84-1

Reference: patent US20110124842A1 (priority 2003, published 2011)
